Values after ≈ are worked out from the molar mass of the structure shown. Values joined by “and” are separate entries in the source; they are usually repeats but may differ in a detail not shown here. Equal entries are not always repeated.
How the values were obtained:
[1] = test system: P19^R strain rv1751 A434T; format: cell-based, Mycobacterium tuberculosis
[2] = test system: P19^R strain rv1751 H97Y/N; format: cell-based, Mycobacterium tuberculosis
P19^R strain rv1751 V96L = format: cell-based, Mycobacterium tuberculosis
[3] = test system: P19^R strain rv1751 P152S; format: cell-based, Mycobacterium tuberculosis
[4] = test system: P19^R strain rv1751 L399W; format: cell-based, Mycobacterium tuberculosis
[5] = test system: Mtb strain H37Rv cydC::aph; format: cell-based, Mycobacterium tuberculosis
[6] = test system: P19^R strain rv1751 L250Q; format: cell-based, Mycobacterium tuberculosis

Question: `Cc1nn2c(=O)cc(-c3ccccc3)[nH]c2c1-c1ccccc1` [Compound 1, 2-Methyl-3,5-diphenylpyrazolo[1,5-a]pyrimidin-7(4H)-one] was tested. Which “MIC A434T” value [1] did it give?
Answer: Its value is 1.56 µM (≈ 0.47 µg/mL).

Question: And the “fold change A434T” value [1]?
Answer: The value was 1.3.

Question: What about the “MIC H97Y/N” value [2] of the same molecule?
Answer: Its value is 1.56 µM (≈ 0.47 µg/mL).

Question: What about the “fold change H97Y/N” value [2] of the same molecule?
Answer: Its value is 1.3.

Question: What about the “MIC V96L” value (P19^R strain rv1751 V96L) of the same molecule?
Answer: Its value is 2.3 µM (≈ 0.693 µg/mL).

Question: And the “fold change V96L” value (P19^R strain rv1751 V96L)?
Answer: The value was 2.

Question: What about the “MIC P152S” value [3] of the same molecule?
Answer: Its value is 2.3 µM (≈ 0.693 µg/mL).

Question: And the “fold change P152S” value [3]?
Answer: Its value is 2.

Question: What about the “MIC L399W” value [4] of the same molecule?
Answer: Its value is 12.5 µM (≈ 3.77 µg/mL).

Question: What about the “fold change L399W” value [4] of the same molecule?
Answer: Its value is 10.

Question: And the “MIC CydKO” value [5]?
Answer: The value was 12.5 µM (≈ 3.77 µg/mL).

Question: What about the “MIC L250Q” value [6] of the same molecule?
Answer: Its value is 3.13 µM (≈ 0.943 µg/mL).

Question: What about the “fold change L250Q” value [6] of the same molecule?
Answer: Its value is 2.6.

Question: With `COc1ccc(-c2cc(=O)n3nc(C)c(-c4ccc(F)cc4)c3[nH]2)cc1` [Compound 4, 3-(4-Fluorophenyl)-5-(4-methoxyphenyl)-2-methylpyrazolo[1,5-a]pyrimidin-7(4H)-one, reference compound] as the molecule, how does the “MIC A434T” value [1] read?
Answer: The value was 2.3 µM (≈ 0.804 µg/mL).

Question: What about the “fold change A434T” value [1] of the same molecule?
Answer: Its value is 1.5.

Question: And the “MIC H97Y/N” value [2]?
Answer: The value was 1.56 µM (≈ 0.545 µg/mL).

Question: What about the “fold change H97Y/N” value [2] of the same molecule?
Answer: The value was 1.

Question: And the “MIC V96L” value (P19^R strain rv1751 V96L)?
Answer: Its value is 2.3 µM (≈ 0.804 µg/mL).

Question: And the “fold change V96L” value (P19^R strain rv1751 V96L)?
Answer: The value was 1.5.

Question: What about the “MIC P152S” value [3] of the same molecule?
Answer: Its value is 2.3 µM (≈ 0.804 µg/mL).

Question: What about the “fold change P152S” value [3] of the same molecule?
Answer: The value was 1.5.

Question: What about the “MIC L399W” value [4] of the same molecule?
Answer: The value was 3.13 µM (≈ 1.09 µg/mL).

Question: And the “fold change L399W” value [4]?
Answer: The value was 2.

Question: And the “MIC CydKO” value [5]?
Answer: Its value is 9.40 µM (≈ 3.28 µg/mL).

Question: What about the “MIC L250Q” value [6] of the same molecule?
Answer: The value was 4.7 µM (≈ 1.64 µg/mL).

Question: And the “fold change L250Q” value [6]?
Answer: Its value is 3.

Question: With `O=c1cc(CC2CCCCC2)[nH]c2c(-c3ccc(Cl)cc3)cnn12` [Compound 2, 3-(4-Chlorophenyl)-5-(cyclohexylmethyl)pyrazolo[1,5-a]pyrimidin-7(4H)-one, reference compound] as the molecule, how does the “MIC A434T” value [1] read?
Answer: Its value is 1.2 µM (≈ 0.41 µg/mL).

Question: What about the “fold change A434T” value [1] of the same molecule?
Answer: The value was 3.

Question: What about the “MIC H97Y/N” value [2] of the same molecule?
Answer: Its value is 0.39 µM (≈ 0.133 µg/mL).

Question: What about the “fold change H97Y/N” value [2] of the same molecule?
Answer: Its value is 1.

Question: And the “MIC V96L” value (P19^R strain rv1751 V96L)?
Answer: The value was 1.2 µM (≈ 0.41 µg/mL).

Question: What about the “fold change V96L” value (P19^R strain rv1751 V96L) of the same molecule?
Answer: Its value is 3.

Question: And the “MIC P152S” value [3]?
Answer: The value was 1.2 µM (≈ 0.41 µg/mL).

Question: What about the “fold change P152S” value [3] of the same molecule?
Answer: Its value is 3.

Question: And the “MIC L399W” value [4]?
Answer: The value was 0.39 µM (≈ 0.133 µg/mL).

Question: And the “fold change L399W” value [4]?
Answer: The value was 1.

Question: What about the “MIC CydKO” value [5] of the same molecule?
Answer: Its value is 25.0 µM (≈ 8.55 µg/mL).

Question: What about the “MIC L250Q” value [6] of the same molecule?
Answer: Its value is 1.2 µM (≈ 0.41 µg/mL).

Question: And the “fold change L250Q” value [6]?
Answer: The value was 3.

Question: Which “MIC A434T” value [1] does the source give for `Cc1nn2c(=O)cc(-c3ccc(F)c(F)c3)[nH]c2c1-c1ccccc1` [Compound P19, 5-(3,4-Difluorophenyl)-2-methyl-3-phenylpyrazolo[1,5-a]pyrimidin-7(4H)-one] here?
Answer: The value was 1.56 µM (≈ 0.526 µg/mL).

Question: And the “fold change A434T” value [1]?
Answer: Its value is 2.

Question: And the “MIC H97Y/N” value [2]?
Answer: Its value is 1.56 µM (≈ 0.526 µg/mL).

Question: And the “fold change H97Y/N” value [2]?
Answer: Its value is 2.

Question: And the “MIC V96L” value (P19^R strain rv1751 V96L)?
Answer: Its value is 2.3 µM (≈ 0.776 µg/mL).

Question: And the “fold change V96L” value (P19^R strain rv1751 V96L)?
Answer: The value was 3.

Question: And the “MIC P152S” value [3]?
Answer: Its value is 1.56 µM (≈ 0.526 µg/mL).

Question: And the “fold change P152S” value [3]?
Answer: Its value is 2.

Question: And the “MIC L399W” value [4]?
Answer: Its value is 12.5 µM (≈ 4.22 µg/mL).

Question: What about the “fold change L399W” value [4] of the same molecule?
Answer: The value was 16.

Question: What about the “MIC CydKO” value [5] of the same molecule?
Answer: Its value is 3.13 µM (≈ 1.06 µg/mL).

Question: And the “frequency of resistant clones” value (Mtb H37Rv)?
Answer: The value was 3 × 10^–8 and 4 × 10^–9.

Question: What about the “MIC L250Q” value [6] of the same molecule?
Answer: Its value is 2.3 µM (≈ 0.776 µg/mL).

Question: And the “fold change L250Q” value [6]?
Answer: Its value is 3.

Question: With `Cc1nn2c(=O)cc(-c3ccc(Cl)c(Cl)c3)[nH]c2c1-c1ccc(F)cc1` [Compound P24, 5-(3,4-Dichlorophenyl)-3-(4-fluorophenyl)-2-methylpyrazolo[1,5-a]pyrimidin-7(4H)-one] as the molecule, how does the “MIC A434T” value [1] read?
Answer: The value was 3.12 µM (≈ 1.21 µg/mL).

Question: What about the “fold change A434T” value [1] of the same molecule?
Answer: Its value is 2.

Question: And the “MIC H97Y/N” value [2]?
Answer: Its value is 6.25 µM (≈ 2.43 µg/mL).

Question: What about the “fold change H97Y/N” value [2] of the same molecule?
Answer: The value was 4.

Question: And the “MIC V96L” value (P19^R strain rv1751 V96L)?
Answer: Its value is 7.82 µM (≈ 3.04 µg/mL).

Question: And the “fold change V96L” value (P19^R strain rv1751 V96L)?
Answer: The value was 5.

Question: And the “MIC P152S” value [3]?
Answer: The value was 3.90 µM (≈ 1.51 µg/mL).

Question: What about the “fold change P152S” value [3] of the same molecule?
Answer: The value was 2.5.

Question: What about the “MIC L399W” value [4] of the same molecule?
Answer: The value was 18.8 µM (≈ 7.3 µg/mL).

Question: And the “fold change L399W” value [4]?
Answer: Its value is 12.

Question: What about the “MIC L250Q” value [6] of the same molecule?
Answer: Its value is 6.26 µM (≈ 2.43 µg/mL).

Question: What about the “fold change L250Q” value [6] of the same molecule?
Answer: Its value is 4.

Question: For `NNC(=O)c1ccncc1` [INH, isoniazid, reference compound], which “MIC A434T” value [1] is on record?
Answer: The value was 0.04 µM (≈ 0.00549 µg/mL).

Question: And the “MIC H97Y/N” value [2]?
Answer: The value was 0.04 µM (≈ 0.00549 µg/mL).

Question: And the “MIC V96L” value (P19^R strain rv1751 V96L)?
Answer: The value was 0.04 µM (≈ 0.00549 µg/mL).

Question: What about the “MIC P152S” value [3] of the same molecule?
Answer: The value was 0.04 µM (≈ 0.00549 µg/mL).

Question: And the “MIC L399W” value [4]?
Answer: Its value is 0.04 µM (≈ 0.00549 µg/mL).

Question: What about the “MIC CydKO” value [5] of the same molecule?
Answer: The value was 0.30 µM (≈ 0.0411 µg/mL).

Question: And the “MIC L250Q” value [6]?
Answer: The value was 0.04 µM (≈ 0.00549 µg/mL).
